Measurements from patent US20250339443A1, “METHOD FOR TREATING OR PREVENTING CALCIUM RELEASE-ACTIVATED CALCIUM CHANNEL OR DISCOIDIN DOMAIN RECEPTOR 2 RELATED DISORDERS OR CONDITIONS” (LumiSTAR Biotechnology, Inc., priority 2023, published 2025).

Legend:
Format in all cases: cell-based
CRAC channel [1] = target: T1, CRAC channel (Homo sapiens, UniProt Q96D31); assay: SOCE in T cells; set-up: endogenous in cells; host or cells: HEK293T; conditions: 10 μM
Description: The effects of BTP2, WRG-28, Av, and CM-4620 on SOCE were evaluated in T cells (FIG. 4A) and macrophages (FIG. 4E). Cells were cultured on glass-bottom 96-well plates and pretreated with various compounds (10 μM) while being loaded with Fura 2-AM. Subsequently, the cytosolic calcium signal waves were recorded, and the second peak of each wave and rate of entry were assessed. Each bar represents the mean value derived from, 43 to 111 cells for T cells (FIG. 4A), and 52 to 91 cells for macrophages (FIG. 4E). Cytokine induction in T cells and macrophages was conducted as described in the methods section. The levels of cytokines, including IL-2, TNF-α, and IL-6 in the culture medium were assessed using ELISA kits for T cells (FIG. 4B, FIG. 4C, and FIG. 4D) and macrophages (FIG. 4F, FIG. 4G, and FIG. 4H), respectively. Each bar represents the mean±SEM. In all the graphs, *, **, and *** denote p-values of <0.05, 0.01, and 0.001, respectively. […]
(§1) Cells cultured on a glass-bottom 96 well plate for 48 hours were treated with different compounds (10 μM) and Fura 2-AM (1 μM) simultaneously in a solution containing 145 mM NaCl, 2.8 mM KCl, 2 mM CaCl2, 2 mM MgCl2, 10 mM D-glucose, 10 mM HEPES, pH 7.4 for 40 minutes in the dark. […] All the images were analyzed by using IGOR Pro software. […]

CRAC channel [2] = target: T1, CRAC channel; assay: CRAC channel activity / SOCE by Fura 2-AM cytosolic Ca2+ imaging in HEK293T cells; set-up: endogenous in cells; host or cells: HEK293T; conditions: 10 μM, 1 μM thapsigargin then 2 mM Ca2+
Description: CRAC channel activity was evaluated by applying 1 μM thapsigargin (Thap.) in a calcium-free solution to deplete the endoplasmic reticulum calcium store, followed by the reintroduction of 2 mM Ca^2+ in an external solution. The concentration of cytosolic calcium ions increases as calcium flows through the CRAC channel, leading to the second peak in cytosolic calcium waves. […] Each bar represents the mean value derived from 47 to 103 cells. […] Each bar represents the mean value derived from 83 to 176 cells. […] Further analyses are presented in FIG. 1I and FIG. 1J, where the second peak of each wave and rate of entry were analyzed. Each bar represents the mean value derived from 72 to 108 cells. […] In all the graphs, each bar represents mean±SEM and *, **, and *** denote p-value <0.05, 0.01, and 0.001, respectively.
Cells were then washed and incubated with the same solution in addition to the supplement of Fura 2-AM for another 15 minutes for fully de-esterification. […] 1 μM thapsigargin was added to induce endoplasmic reticulum (ER) calcium store depletion followed by applying 2 mM calcium solution to assess the activation of calcium release-activated calcium (CRAC) channels. Cells were alternately excited at 340 and 380 nm, and images were acquired every 2 seconds. […] All the images were analyzed by using IGOR Pro software. […]

CRAC channel [3] = target: T1, CRAC channel; assay: CRAC channel activity / SOCE in HCF; set-up: endogenous in cells; conditions: 10 μM pretreatment 45 min
Description: Cells were co-treated with various compounds (10 μM) and TGF-β1 for 24 hours. Following this, cell lysates were harvested, and the protein expression was assessed by Western blot analysis. FIG. 3D depicts the examination of TGF-β1-induced fibronectin deposition and α-SMA expression in HCF treated with 10 μM of DMSO, BTP2, WRG-28, or Av through immunofluorescence staining. The images were captured using a confocal microscope, the Olympus FV-1000. FIG. 3E, FIG. 3F, and FIG. 3G illustrate the assessment of CRAC channel activity in HCF, MRC5, and rat HSC-T6. These cells were pretreated with 10 μM of BTP2, WRG-28, or Av for 45 min. The evaluation included measuring the second peak of each calcium wave and the rate of entry. Each bar within the figure represents the mean value derived from 77 to 91 cells for HCF, 31 to 49 cells for MRC5, and 43 to 94 cells for HSC-T6. In all the graphs, *, **, and *** denote p-values of <0.05, 0.01, and 0.001, respectively.
as §1

T1 sequence (Q96D31 whole entry): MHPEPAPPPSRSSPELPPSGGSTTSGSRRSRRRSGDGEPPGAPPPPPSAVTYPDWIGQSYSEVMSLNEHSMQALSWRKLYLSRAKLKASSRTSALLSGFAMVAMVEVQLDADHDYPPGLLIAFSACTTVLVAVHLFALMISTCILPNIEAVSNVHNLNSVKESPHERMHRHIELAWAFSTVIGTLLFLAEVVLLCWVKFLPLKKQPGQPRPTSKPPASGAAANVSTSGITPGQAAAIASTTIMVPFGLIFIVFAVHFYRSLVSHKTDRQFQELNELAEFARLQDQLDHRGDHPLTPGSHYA

## CCNS(=O)(=O)c1ccc(COc2ccc3nc4ccc(=O)cc-4oc3c2)cc1 [WRG-28]
CRAC channel [1]
  SOCE in T cells: higher efficacy compared to Av
CRAC channel [2]
  second peak and rate of SOCE: significantly reduced
CRAC channel [3]
  SOCE: notably reduced
